According to PMC6413952, “Discovery of ABBV-4083, a novel analog of Tylosin A that has potent anti-Wolbachia and anti-filarial activity” (PLoS Neglected Tropical Diseases, 2019):

Assays:
[1] = system: Wolbachia pipientis in Aedes albopictus C6/36 (wAlbB) insect cells; assay: A·WOL Wolbachia-infected Aedes albopictus (C6/36 wAlbB) 7-day cell-based assay, high content imaging; details: for activity against Wolbachia: commercially available 16-membered macrolides
Description: Compounds were screened for anti-Wolbachia activity in vitro in the A·WOL-validated Wolbachia-infected Aedes albopictus (C6/36 wAlbB) 7-day cell-based assay which utilizes a 384-well format assay with high content imaging (HCI) (Operetta) as described previously.
We began our work by selecting a diverse and representative sample of the AbbVie antibiotics collection (129 compounds) for single-point testing against Wolbachia pipientis in an insect cell line. […] While TylA has a long history of use in multiple animal species, it has never been studied in humans; and its activity against Wolbachia has not previously been reported.

MDR-MDCK monolayer = type: in vitro ADME, canine; details: MDCK-MDR1
Description: Drug levels in the IP arm of this study were >30-fold higher than those achieved when the drug is given PO. […] Therefore, improving drug absorption by increasing permeability became a primary goal for our lead-optimization studies.

[2] = Mouse pharmacokinetic study (plasma levels, IP or PO); type: in vivo, BALB/c mice
Protocol: PO doses were administrated by oral gavage, IP doses by intraperitoneal injection to BALB/c mice or Sprague-Dawley rats (Charles River Laboratories, USA). Serial blood samples collected into EDTA anticoagulant for plasma concentration analysis were obtained from each animal after dosing. EDTA preserved plasma samples were extracted by protein precipitation with acetonitrile fortified with internal standards. The supernatant was injected into an HPLC-MS/MS system for separation and quantitation. Detection was accomplished using a triple quadrupole mass spectrometer operated either in electrospray or atmospheric chemical ionization (APCI) mode. The area under the plasma concentration-time curve (AUC) was calculated using the linear trapezoidal rule. […] Plasma levels of TylA in BALB/c mice following IP or PO dosing (100 mg/kg).

[3] = Rat oral pharmacokinetic study (plasma AUC, C8hr); type: in vivo, Sprague-Dawley rats; details: for C*8hr / C*8hr/ EC50 / AUC*/EC50: PO rats; for AUC* parent / AUC* TylA (metabolite): PO, Sprague-Dawley rats; for C*8hr/ EC50: potency-weighted 8-hr drug level; for AUC*/EC50: potency-weighted AUC; for AUC* TylA (metabolite): primary metabolite TylA; for improvement in plasma drug levels (AUC) over TylA / drug levels relative to 2'-OH partners 5c and 5d: rats
Protocol: PO doses were administrated by oral gavage, IP doses by intraperitoneal injection to BALB/c mice or Sprague-Dawley rats (Charles River Laboratories, USA). Serial blood samples collected into EDTA anticoagulant for plasma concentration analysis were obtained from each animal after dosing. EDTA preserved plasma samples were extracted by protein precipitation with acetonitrile fortified with internal standards. The supernatant was injected into an HPLC-MS/MS system for separation and quantitation. Detection was accomplished using a triple quadrupole mass spectrometer operated either in electrospray or atmospheric chemical ionization (APCI) mode. The area under the plasma concentration-time curve (AUC) was calculated using the linear trapezoidal rule.

Litomosoides sigmodontis = Litomosoides sigmodontis larval mouse model (worm length); type: in vivo, BALB/c mice; details: 35 days post-infection
Protocol: As described previously, female BALB/c mice or female jirds were infected at 6–8 weeks of age with L. sigmodontis larvae through the bites of Ornithonyssus bacoti mites. […] One day post infection, mice were dosed IP or PO with TylA (Sigma Aldrich, 200 mg/kg BID x 7 days), doxycycline hyclate (Sigma-Aldrich, 200 mg/kg BID x 14 days), or vehicle using a volume of 10 ml/kg. At 35 days post-infection mice were euthanized using an overdose of isoflurane; worms were recovered from the pleural cavity by pleural lavage, counted, sexed and staged for development into L4 and adult worms based on the difference of the buccal capsule through microscopic examination. Female worms were measured for length (mm) as a marker for development as previously described. Data were distributed in a non-parametric fashion, median and interquartile ranges are presented. For comparing the length of the female worms, the Mann-Whitney-U test was used to calculate statistical differences either against the vehicle treated or gold standard groups.

Compound	C*8hr [3] [ng/mL per mg/kg]	AUC* parent [3] [ng-hr/ml per mg/kg]	C*8hr/ EC50 [3] [ng/ml/nM per mg/kg]	AUC*/EC50 [3] [ng-hr/ml/nM per mg/kg]	AUC* TylA (metabolite) [3] [ng-hr/ml per mg/kg]	improvement in plasma drug levels (AUC) over TylA ([3]; oral dosing)	activity against Wolbachia [1]	further results
CC[C@H]1OC(=O)C[C@@H](O)[C@H](C)[C@@H](O[C@@H]2O[C@H](C)[C@@H](O[C@H]3C[C@@](C)(O)[C@@H](O)[C@H](C)O3)[C@H](N(C)C)[C@H]2O)[C@@H](CC=O)C[C@@H](C)C(=O)/C=C/C(C)=C/[C@@H]1CO[C@@H]1O[C@H](C)[C@@H](O)[C@@H](OC)[C@H]1OC [1 (TylA), Tylosin A]	0.5	9.6	0.02	0.34	–	–	–	EC50 ([1]; C6/36, Wolbachia-infected insect cells, geometric mean (N), each N a duplicate measurement): 28 nM; permeability (MDR-MDCK monolayer): < 0.1X10^-6 cm/sec; drug levels IP arm relative to PO ([2]; BALB/c mice, 100 mg/kg IP or PO): > 30 fold; length of recovered worms (Litomosoides sigmodontis; 200 mg/kg IP BID x 7 days): notably shorter than controls; length of recovered worms (Litomosoides sigmodontis; 200 mg/kg PO BID x 7 days): minimal response
CCCCC(=O)OC1C(OC2C(CC=O)CC(C)C(=O)C=CC(C)=CC(COC3OC(C)C(O)C(OC)C3OC)C(CC)OC(=O)CC(O)C2C)OC(C)C(OC2CC(C)(O)C(O)C(C)O2)C1N(C)C (stereo not shown) [Compound 2c]	2.5	58	0.04	0.89	1.2	6 fold	–	potency-weighted 8-hr drug level (C8hr/dose/EC50) relative to TylA ([3]; oral dosing): doubles; potency-weighted AUC (AUC*/EC50) relative to TylA ([3]; oral dosing): ~ 2.6 fold; metabolic stability of substituent / species observed in plasma ([3]; oral pharmacokinetic study): relatively metabolically stable
CCC1OC(=O)CC(O)C(C)C(OC2OC(C)C(OC3CC(C)(O)C(OC(=O)N(CC)CC)C(C)O3)C(N(C)C)C2OC(=O)C(C)C)C(CC=O)CC(C)C(=O)C=CC(C)=CC1COC1OC(C)C(O)C(OC)C1OC (stereo not shown) [Compound 4d]	30	420	1.25	17.5	1.4	40–50 fold	–	drug levels relative to 2'-OH partners 5c and 5d ([3]; oral dosing): more than 10 fold
CC[C@H]1OC(=O)C[C@@H](O)[C@H](C)[C@@H](O[C@@H]2O[C@H](C)[C@@H](O[C@H]3C[C@@](C)(O)[C@@H](OCc4ccc(F)cc4)[C@H](C)O3)[C@H](N(C)C)[C@H]2OC(=O)C(C)C)[C@@H](CC=O)C[C@@H](C)C(=O)/C=C/C(C)=C/[C@@H]1CO[C@@H]1O[C@H](C)[C@@H](O)[C@@H](OC)[C@H]1OC [Compound 4e]	30	510	1.03	17.6	<0.6	40–50 fold	–	drug levels relative to 2'-OH partners 5c and 5d ([3]; oral dosing): more than 10 fold
CCCCC(=O)OC1C(C)OC(OC2C(C)OC(OC3C(CC=O)CC(C)C(=O)C=CC(C)=CC(COC4OC(C)C(O)C(OC)C4OC)C(CC)OC(=O)CC(O)C3C)C(O)C2N(C)C)CC1(C)O (stereo not shown) [Compound 5a]	–	<0.6	–	–	30	–	–	potency improvement (EC50) over TylA ([1]; EC50 lower than parent TylA): 25 fold; parent ester in plasma ([2]; mice, oral, any time point): no sign of parent is observed; increase in oral drug levels upon 4"-acylation ([2]; mice, measured drug is deacylated metabolite TylA): ~ 3 fold
CCC1OC(=O)CC(O)C(C)C(OC2OC(C)C(OC3CC(C)(O)C(OC(=O)C(C)(C)C)C(C)O3)C(N(C)C)C2O)C(CC=O)CC(C)C(=O)C=CC(C)=CC1COC1OC(C)C(O)C(OC)C1OC (stereo not shown) [Compound 5b]	3.0	58	0.56	10.7	<0.6	6 fold	–	potency-weighted AUC (AUC*/EC50) relative to TylA ([3]; oral dosing): 30 fold; deacylated product TylA as share of total circulating drug ([3]; rat pharmacokinetic study, oral): < 1%
CO[C@@H]1[C@@H](O[C@@H]2O[C@H](C)[C@@H](O[C@H]3C[C@@](C)(O)[C@@H](OC(=O)CC(C)C)[C@H](C)O3)[C@H](N(C)C)[C@H]2O)[C@@H](CC=O)C[C@@H](C)[C@@H](O)/C=C/C=C/C[C@@H](C)OC(=O)C[C@H]1O [leucomycin]	–	–	–	–	–	–	inactive	–
CCC(=O)O[C@@H]1CC(=O)O[C@H](C)C/C=C/C=C/[C@H](O)[C@H](C)C[C@H](CC=O)[C@H](O[C@@H]2O[C@H](C)[C@@H](O[C@H]3C[C@@](C)(O)[C@@H](OC(=O)CC)[C@H](C)O3)[C@H](N(C)C)[C@H]2O)[C@H]1OC [midecamycin]	–	–	–	–	–	–	inactive	–
josmycin	–	–	–	–	–	–	inactive	–
spiramycin	–	–	–	–	–	–	inactive	–
